Laboratory results as given in US7964560B2, “Hepatitis C virus inhibitors” (Bristol-Myers Squibb Company, priority 2008, dated 2011).
Read-outs that look alike come from different tables or passages of the source.

How the values were obtained:
[1] = test system: HCV replicon in HUH-7 cells; assay: HCV replicon FRET assay; type: cell-based, Hepatitis C virus (strain 1b); conditions: Hepatitis C virus
Excerpt: An HCV replicon whole cell system was established as described by Lohmann, V. et al., Science, 285(5424):110-113 (1999). This system enabled us to evaluate the effects of our HCV Protease compounds on HCV RNA replication. Briefly, using the HCV strain 1b sequence described in the Lohmann paper (Accession number: AJ238799), an HCV cDNA was synthesized by Operon Technologies, Inc. (Alameda, Calif.), and the full-length replicon was then assembled in plasmid pGem9zf(+) (Promega, Madison, Wis.) using standard molecular biology techniques. The replicon consists of (i) the HCV 5′ UTR fused to the first 12 amino acids of the capsid protein, (ii) the neomycin phosphotransferase gene (neo), (iii) the IRES from encephalomyocarditis virus (EMCV), and (iv) HCV NS3 to NS5B genes and the HCV 3′ UTR. Plasmid DNAs were linearized with ScaI and RNA transcripts were synthesized in vitro using the T7 MegaScript transcription kit (Ambion, Austin, Tex.) according to manufacturer's directions. In vitro transcripts of the cDNA were transfected into the human hepatoma cell line, HUH-7. […] Resulting cell lines were characterized for positive and negative strand RNA production and protein production over time.
The HCV replicon FRET assay was developed to monitor the inhibitory effects of compounds described in the disclosure on HCV viral replication. HUH-7 cells, constitutively expressing the HCV replicon, were grown in Dulbecco's Modified Eagle Media (DMEM) (Gibco-BRL) containing 10% Fetal calf serum (FCS) (Sigma) and 1 mg/ml G418 (Gibco-BRL). Cells were seeded the night before (1.5×10^4 cells/well) in 96-well tissue-culture sterile plates. Compound and no compound controls were prepared in DMEM containing 4% FCS, 1:100 Penicillin/Streptomysin (Gibco-BRL), 1:100 L-glutamine and 5% DMSO in the dilution plate (0.5% DMSO final concentration in the assay). Compound/DMSO mixes were added to the cells and incubated for 4 days at 37° C. After 4 days, cells were first assessed for cytotoxicity using alamar Blue (Trek Diagnostic Systems) for a CC50 reading. The toxicity of compound (CC50) was determined by adding 1/10th volume of alamar Blue to the media incubating the cells. After 4 h, the fluorescence signal from each well was read, with an excitation wavelength at 530 nm and an emission wavelength of 580 nm, using the CYTOFLUOR® Series 4000 (Perspective Biosystems). Plates were then rinsed thoroughly with Phosphate-Buffered Saline (PBS) (3 times 150 μl). The cells were lysed with 25 μl of a lysis assay reagent containing an HCV protease substrate (5× cell Luciferase cell culture lysis reagent (PROMEGA® #E153A) diluted to 1× with distilled water, NaCl added to 150 mM final, the FRET peptide substrate (as described for the enzyme assay above) diluted to 10 μM final from a 2 mM stock in 100% DMSO. The plate was then placed into the CYTOFLUOR® 4000 instrument which had been set to 340 nm excitation/490 nm emission, automatic mode for 21 cycles and the plate read in a kinetic mode. EC50 determinations were carried out as described for the IC50 determinations.

[2] = test system: HCV replicon (Renilla luciferase reporter) in HUH-7 cells; assay: HCV replicon luciferase reporter assay; type: cell-based, Hepatitis C virus (strain 1b); conditions: Huh-7, 96 h, 4 days
[3] = target: T1, human pancreatic chymotrypsin (Homo sapiens, UniProt P17538); assay: Specificity assay, chymotrypsin; type: biochemical
T1 construct: purchased Sigma, EMDbiosciences
T1 sequence (P17538 19-263): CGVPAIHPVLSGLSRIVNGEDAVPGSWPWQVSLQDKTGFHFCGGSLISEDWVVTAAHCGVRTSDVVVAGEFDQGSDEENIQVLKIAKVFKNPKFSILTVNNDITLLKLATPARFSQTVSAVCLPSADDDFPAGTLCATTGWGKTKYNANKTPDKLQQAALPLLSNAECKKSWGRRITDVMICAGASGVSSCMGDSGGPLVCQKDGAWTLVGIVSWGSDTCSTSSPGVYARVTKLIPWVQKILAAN
Method: The specificities of compounds of the present disclosure were determined against a variety of serine proteases: human neutrophil elastase (HNE), porcine pancreatic elastase (PPE) and human pancreatic chymotrypsin and one cysteine protease: human liver cathepsin B. In all cases a 96-well plate format protocol using a fluorometric Amino-Methyl-Coumarin (AMC) substrate specific for each enzyme was used as described previously (PCT Patent Application No. WO 00/09543) with some modifications to the serine protease assays. All enzymes were purchased from Sigma, EMDbiosciences while the substrates were from Bachem, Sigma and EMDbiosciences.
Compound concentrations varied from 100 to 0.4 μM depending on their potency. The enzyme assays were each initiated by addition of substrate to enzyme-inhibitor pre-incubated for 10 min at room temperature and hydrolysis to 15% conversion as measured on CYTOFLUOR®.
50 mM Tris(hydroxymethyl)aminomethane hydrochloride (Tris-HCl) pH 8, 0.5 M Sodium Sulfate (Na2SO4), 50 mM NaCl, 0.1 mM EDTA, 3% DMSO, 0.01% Tween-20 with 5 μM LLVY-AMC and 1 nM Chymotrypsin.
The percentage of inhibition was calculated using the formula: [1−((UVinh−UVblank)/(UVctl−UVblank))]×100
A non-linear curve fit was applied to the inhibition-concentration data, and the 50% effective concentration (IC50) was calculated by the use of Excel XLfit software.

Which EC50 ([1]; 96 h, HUH-7 replicon cells, 4 days, read-out: EC50 value in the replicon FRET assay) does the source give for `C=C[C@@H]1C[C@]1(NC(=O)[C@@H]1C[C@@](SCCCC)(c2ccc(-c3ccccc3)cc2)CN1C(=O)[C@@H](NC(=O)OC(C)(C)C)C(C)(C)C)C(=O)NS(=O)(=O)C1CC1` [Example 1, tert-butyl (S)-1-((2S,4R)-4-(biphenyl-4-yl)-4-(butylthio)-2-((1R,2S)-1-(cyclopropylsulfonylcarbamoyl)-2-vinylcyclopropylcarbamoyl)pyrrolidin-1-yl)-3,3-dimethyl-1-oxobutan-2-ylcarbamate] here?
The EC50 was 7.3 nM.

What about the EC50 ([1]; Huh-7) of the same compound?
The EC50 was 7.2 to 22 nM.

And the EC50 [2]?
The EC50 was 6 nM.

And the IC50 [3]?
The IC50 was 13200 nM.
